Key:
[1] = tested on: inflammatory response; assay: Implant-site observation: resorption of foreign material and encapsulation (FIGS. 9 and 10); format: in vivo; conditions: picture
Excerpt: FIG. 10 is a picture of fluocinolone implants 20 wt % 85/15 PLGA+10% mPEG and 1% wt fluocinolone 100 DL 7E+5% PEG/7% 50/50 PLGA 7A. The foreign and inflammatory material was not resorbed due to lack of inflammatory response mediated by fluocinolone implants.

[2] = tested on: chronic constriction injury (CCI) model of neuropathic pain; assay: 2-month chronic constriction injury (CCI) model: mechanical threshold and thermal paw withdrawal latency; format: in vivo; conditions: compared with the fluocinolone implants
Description: A 2-month chronic constriction injury (CCI) model of neuropathic pain was used to evaluate different formulations of a corticosteroid, fluocinolone, encapsulated in bioerodable polymers compared to fluocinolone given subcutaneously (SC). Different formulations as provided in Table B below were evaluated for reducing pain-associated behaviors: Thermal paw withdrawal latency was evaluated at baseline 7, 14, 21, 28, 35, 42, 49, and 56 days post-operatively, while mechanical threshold was evaluated at 8, 15, 22, 29, 36, 43, 50, and 57 days post-operatively.
There were seven groups of animals tested. […]
Mechanical allodynia was measured using von Frey monofilaments (Stoelting, Wood Dale, Ill.) with varying stiffness (2.0-15.0 g) on Days 1, 8, 15, 22, 29, 36, 43, 50 and 57 as described previously (see FIGS. 5-6). […] The 50% paw withdrawal threshold response was determined by a sequential increasing and/or decreasing of the stimulus strength (the “up-down method” of Dixon). […] The 50% paw withdrawal threshold was calculated using the formula: 10 (Xf+kd)/10,000, where Xf is the final von Frey filament used (log units), k is a value that analyzes the response pattern (taken from the table published by Chaplan et al.), and d is the mean difference between stimuli (log units). The mean and standard error of the mean (SEM) were determined for each treatment group.

SMILES: CC1=C(CC(=O)O)c2cc(F)ccc2/C1=C\c1ccc([S+](C)[O-])cc1 (stereo not drawn) [sulindac]
- encapsulation of implant [1]: did not prevent encapsulation
- resorption of foreign and inflammatory material (sutures) [1]: resorbed
- pain control response [2]: very similar pain control response
